Test results as given in patent publication US6387886B1, “Method for the treatment of severe chronic bronchitis (bronchietasis) with an aerosolized antibiotic” (Chiron Corporation, priority 1998, dated 2002).
Like-named read-outs stand apart in the source and are kept apart here.

Tests used:
P. aeruginosa [1] = conditions: cited from earlier work
[2] = purulent sputum; cited from earlier work
Gram-negative bacteria = conditions: cited from earlier work
P. aeruginosa isolates = conditions: initial sputum cultures, CF patients, 1993; cited from earlier work
P. aeruginosa [3] = assay: Placebo-controlled clinical study in bronchiectasis: sputum P. aeruginosa density and microbiological response; type: in vivo, Pseudomonas aeruginosa
Experimental: A placebo-controlled, double-blind, randomized study was conducted to evaluate the microbiological efficacy and safety of inhaled tobramycin for treatment of patients with bronchiectasis and P. aeruginosa. […] The change in P. aeruginosa density in sputum was measured at Weeks 2, 4, and 6 (2 weeks post-treatment). Clinicians assessed patients' general medical condition at Week 6. Safety parameters included adverse events, serum chemistry, and airway reactivity. […] At Week 6, P. aeruginosa was eradicated in 35% of TSI-treated patients but was detected in all placebo patients. […] Few patients withdrew due to adverse events. TSI holds promise as a therapy for patients with bronchiectasis. The study was conducted as follows: […] Patients were excluded if they had CF, a diagnosis of allergic bronchopulmonary aspergillosis, an acute pulmonary process requiring medical intervention as indicated by a new infiltrate on a chest radiograph, significant recent hemoptysis, or had received antibiotics within two weeks of the screening visit. Eligible patients were randomly assigned in blocks of two to parallel groups at each study center to receive either TSI or placebo. […] At all study visits, vital signs were measured, adverse events were recorded, and a sputum sample was collected for quantitative microbiology and susceptibility testing. […] At Week 4, airway reactivity was again monitored, a medical exam was performed, and laboratory tests that were performed at screening were repeated. […] The primary efficacy endpoint was the change in P. aeruginosa density (expressed as log10 CFU/g sputum) from baseline to Week 4. […] (2) an investigator's assessment of change in the patient's general medical condition (“improved” or “not improved”) throughout the study (recorded at Week 6); (3) the percent change in FEV1% predicted and in forced vital capacity (FVC) % predicted from Week 0 to Week 4. […] P. aeruginosa was considered eradicated if it was not detected at Week 6 or if the patient was unable to produce a sputum sample at Week 6 and P. aeruginosa was not isolated at Week 4. […]

P. aeruginosa [4] = conditions: CF patients, 300 mg inhaled twice daily, cited from earlier work
[5] = 71 CF patients, 600 mg tid aerosolized

## NC[C@H]1O[C@H](O[C@H]2[C@H](O)[C@@H](O[C@H]3O[C@H](CO)[C@@H](O)[C@H](N)[C@H]3O)[C@H](N)C[C@@H]2N)[C@H](N)C[C@@H]1O [tobramycin]
P. aeruginosa [1]; [5]
  spirometry: improved spirometry
  sputum density of P. aeruginosa: significant reduction
P. aeruginosa [1]; versus placebo
  emergence of P. aeruginosa strains highly resistant to tobramycin (MIC >128 μg/mL): comparable in the placebo and treatment groups
[2]
  higher concentrations required in the sputum to overcome inhibitory effects: 5-10 ×
Gram-negative bacteria
  concentrations effective in inhibiting the growth of many Gram-negative bacteria: < 4 µg/mL
P. aeruginosa isolates
  isolates with MICs <16 μg/mL: 90%
  isolates with MICs ≦128 μg/mL: 98%
P. aeruginosa [3]; bronchiectasis versus cystic fibrosis
  antimicrobial efficacy relative to cystic fibrosis patients: greater than 10,000 fold
P. aeruginosa [3]; in some patients, endobronchial administration
  factor by which colony forming units (CFU) of P. aeruginosa are decreased: ≥ 10^6
P. aeruginosa [3]; summary statement
  bronchiectasis patients with complete eradication: 20%
P. aeruginosa [4]; 28 days on/28 days off, Week 0 to Week 20
  average decrease in P. aeruginosa density: 0.8 log10
P. aeruginosa [4]; Week 0 to Week 4
  average decrease in P. aeruginosa density: 1.9 log10
